This series deals with T1, CYP2B6 (Homo sapiens, UniProt P20813).
T1 sequence (P20813 1-491): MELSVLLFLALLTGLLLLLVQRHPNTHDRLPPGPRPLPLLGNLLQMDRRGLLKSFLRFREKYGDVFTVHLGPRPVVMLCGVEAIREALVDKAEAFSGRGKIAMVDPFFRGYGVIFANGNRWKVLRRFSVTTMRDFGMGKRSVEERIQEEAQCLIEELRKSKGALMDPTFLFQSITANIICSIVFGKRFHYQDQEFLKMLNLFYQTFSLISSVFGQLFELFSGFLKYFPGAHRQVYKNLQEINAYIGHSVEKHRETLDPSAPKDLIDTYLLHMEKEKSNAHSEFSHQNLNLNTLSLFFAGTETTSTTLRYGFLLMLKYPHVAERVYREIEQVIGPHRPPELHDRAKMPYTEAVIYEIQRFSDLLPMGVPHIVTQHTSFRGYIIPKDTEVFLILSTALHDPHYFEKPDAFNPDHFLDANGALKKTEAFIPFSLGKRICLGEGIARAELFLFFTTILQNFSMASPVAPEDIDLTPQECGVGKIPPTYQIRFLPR
In words: Direct inhibition of CYP2B6 (Bupropion hydroxylase) activity in pooled human liver microsomes. The following applies: pH 7.4, probe Bupropion (hydroxylation to hydroxyBupropion). (Liver microsomes are a subcellular fraction often used to study metabolism.)

SMILES strings stand for the structures.

Protocol: The total amount of organic solvent was ≦1%. Each incubation included 0.1 M phosphate buffer (pH 7.4), substrate, inhibitor and microsomal protein in a final volume of approximately 0.5 mL. Reactions were initiated by addition of NADPH (1 mM final concentration) and incubated for the indicated times at 37° C. with gentle agitation.
Control incubations included positive inhibitor control samples for direct inhibition as well as samples without NADPH. All reactions were terminated by the addition of organic solvent, and internal standard was added (when appropriate), and samples were mixed and centrifuged at approximately 3000 rpm for 10 minutes. The organic layer was transferred to a clean tube and evaporated to dryness at about 40° C. under nitrogen. The sample was reconstituted and analyzed by LC MS/MS.
Incubations to determine CYP2B6-mediated conversion of Bupropion to hydroxyBupropion (OHBP) in microsomal preparations were terminated by addition of 2.5 mL isoamyl alcohol: ethyl acetate (1:100, v:v). The internal standard, hydroxyBupropion-d6, and a saturated sodium chloride solution (0.25 mL) were added to all samples. […]
Reaction velocities (V) were calculated using Equation 1:
V(nmol/min/mg)=calculated ng/mL×0.5mL/(MW ng/nmol)/min/mg Equation 1
Percentage of remaining activity was determined using the following equation: […]

In the case of `S=P(N1CC1)(N1CC1)N1CC1` [Positive Control, ThioTEPA], the activity at 75 μM amounted to 22.8%.

These data come from US20100016294A1, “METHODS FOR REDUCING THE RISK OF AN ADVERSE DRUG I[…] A PATIENT SUFFERING FROM INSOMNIA” (QUESTCOR PHARMACEUTICALS, INC., priority 2008, published 2010).
